Measurements reported in US7256028B2, “Methods for screening compounds that modulate lipid metabolism” (Xenon Genetics Inc., priority 2000, dated 2007).

Assays:
[1] = tested on: D6D Promoter (human delta-6-desaturase control region, pRh4002.1); assay: CAT reporter assay, basal activity of D6D promoter in ZR-75-1 cell line; type: cell-based; settings: ZR-75-1 cells transfected with pRh4002.1 (D6D) plus agent; CAT activity normalized to pCat3-Control = 100; pRh4002.1 alone 75.91
human delta-5-desaturase [2] = biological target: T1, human delta-5-desaturase (Homo sapiens, UniProt O60427); assay: Inhibition of human delta-5-desaturase in spheroplasts of Saccharomyces cerevisiae transformed with pTh5009.1; type: cell-based
T1 construct: expressed in transfected cells; host or cells: Saccharomyces cerevisiae INVSc1 transformed with pTh5009.1 (pYES2/CT backbone), galactose-induced; whole cells or spheroplasts
T1 sequence (O60427 with tags, fused parts or gaps): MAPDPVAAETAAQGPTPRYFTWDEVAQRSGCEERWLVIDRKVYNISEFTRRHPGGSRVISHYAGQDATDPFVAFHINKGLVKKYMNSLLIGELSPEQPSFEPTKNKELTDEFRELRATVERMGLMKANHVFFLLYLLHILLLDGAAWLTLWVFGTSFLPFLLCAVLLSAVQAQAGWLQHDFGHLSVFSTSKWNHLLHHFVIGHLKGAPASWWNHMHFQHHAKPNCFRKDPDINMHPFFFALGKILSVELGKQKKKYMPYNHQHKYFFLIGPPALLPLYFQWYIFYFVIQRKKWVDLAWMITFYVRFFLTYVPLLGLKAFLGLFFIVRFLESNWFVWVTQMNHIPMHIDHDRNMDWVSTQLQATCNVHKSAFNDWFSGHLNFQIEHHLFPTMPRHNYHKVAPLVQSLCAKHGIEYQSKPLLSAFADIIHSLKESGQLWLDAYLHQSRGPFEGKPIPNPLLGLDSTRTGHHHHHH
Experimental: (§1) After 16 h incubation, spheroplasts were prepared as previously described in Example 8.

rat delta-5-desaturase [3] = biological target: T2, rat delta-5-desaturase (Rattus norvegicus, UniProt Q920R3, Q29H/R30G); assay: Inhibition of rat delta-5-desaturase in spheroplasts of Saccharomyces cerevisiae transformed with pYr5014.1; type: cell-based
T2 construct: A rD5D cDNA fragment spanning nucleotides +1 to +1344 was cloned by RT-PCR using total RNA extracted from rat liver tissue; expressed in transfected cells; host or cells: Saccharomyces cerevisiae INVSc1 transformed with pYr5014.1 (pYES2 backbone), galactose-induced; whole cells or spheroplasts
T2 sequence (Q920R3 1-447 Q29H/R30G): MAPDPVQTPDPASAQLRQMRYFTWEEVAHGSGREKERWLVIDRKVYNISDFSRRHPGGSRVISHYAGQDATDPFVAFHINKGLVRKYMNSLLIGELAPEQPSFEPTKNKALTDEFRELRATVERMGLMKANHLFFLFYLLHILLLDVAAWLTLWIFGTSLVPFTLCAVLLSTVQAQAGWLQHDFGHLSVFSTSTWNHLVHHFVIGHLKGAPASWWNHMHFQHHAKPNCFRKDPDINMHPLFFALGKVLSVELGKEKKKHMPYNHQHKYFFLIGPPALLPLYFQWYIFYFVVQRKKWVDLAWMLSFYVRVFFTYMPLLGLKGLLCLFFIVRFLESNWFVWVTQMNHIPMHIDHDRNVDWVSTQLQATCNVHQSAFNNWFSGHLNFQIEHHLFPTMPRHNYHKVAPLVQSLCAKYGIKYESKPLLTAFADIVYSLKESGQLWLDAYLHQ
Experimental: as §1

human delta-5-desaturase [4] = biological target: T1, human delta-5-desaturase; assay: Inhibition of human delta-5-desaturase in whole cells of Saccharomyces cerevisiae transformed with pTh5009.1; type: cell-based
Experimental: (§2) Incubation of Whole Yeast: Saccharomyces cerevisiae transformed with either pYr5014.1 or pTh5009.1 were incubated in a 125 ml Erlenmeyer flask containing 9 ml of SC-U medium with 1% tergitol (O.D.600 0.4, approximately 3.2×10^6 cells/ml) and 200 μl of n-propyl gallate in ethanol (final concentration in the culture ranged between 1.7-14.0 mM). After I h incubation in an orbital incubator at 270 rpm and 30° C., 1 μCi of potassium salt of [1-^14C]-dihomogammalinolenic acid (dissolved in SC-U medium and 1% tergitol) was added to the cell suspension to a final concentration of 2 μM. After 5 h incubation with the inhibitor, cells reached the log phase and the transgene expression was induced with the addition of 1 ml of galactose to a final concentration of 2%. Yeast were further incubated for 19 h (O.D.600 range: 5-10) until they were harvested by centrifugation at 5000×g for 10 minutes at 4° C.
(§3) Calculations: The delta-5-desaturase activity was determined by measuring the conversion of radiolabelled dihomogammalinolenic acid to arachidonic acid (20:3n-6 to 20:4n-6). The percent inhibition was calculated as described elsewhere (Kawashima et al., 1996, Biosci. Biotech. Biochem., 60:1672-1676): % Inhibition=100(activity without the inhibitor−activity with the inhibitor)/activity without the inhibitor

rat delta-5-desaturase [5] = biological target: T2, rat delta-5-desaturase; assay: Inhibition of rat delta-5-desaturase in whole cells of Saccharomyces cerevisiae transformed with pYr5014.1; type: cell-based
Experimental: as §2, §3

delta-5-desaturase = biological target: T3, delta-5-desaturase (Rattus norvegicus, UniProt Q920R3); assay: Inhibition of delta-5-desaturase activity in rat liver microsomes; type: biochemical
T3 construct: from tissue; host or cells: liver microsomes of Wistar rats
T3 sequence (Q920R3 whole entry): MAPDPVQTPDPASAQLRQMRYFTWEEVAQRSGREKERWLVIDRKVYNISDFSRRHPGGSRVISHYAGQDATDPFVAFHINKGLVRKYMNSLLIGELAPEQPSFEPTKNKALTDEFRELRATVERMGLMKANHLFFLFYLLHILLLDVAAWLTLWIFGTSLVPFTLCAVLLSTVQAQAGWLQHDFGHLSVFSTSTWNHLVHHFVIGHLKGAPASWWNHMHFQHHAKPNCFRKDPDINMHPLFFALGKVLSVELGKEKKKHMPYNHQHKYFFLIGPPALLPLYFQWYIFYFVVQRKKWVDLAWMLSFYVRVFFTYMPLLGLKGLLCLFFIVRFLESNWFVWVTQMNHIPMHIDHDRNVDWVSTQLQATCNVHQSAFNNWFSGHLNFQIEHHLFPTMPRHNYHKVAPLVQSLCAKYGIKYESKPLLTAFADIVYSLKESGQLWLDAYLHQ
Experimental: Preparation rat liver microsomes: Wistar rats under light halothane (15% in mineral oil) anesthesia were sacrificed by exsanguination during periods of high enzyme activity. Livers are immediately rinsed with cold 0.9% NaCl solution, weighed and minced with scissors. All procedures are performed at 4° C. unless specified otherwise. Livers are homogenized in a solution (1:3 w/v) containing 0.25 M sucrose, 62 mM. potassium phosphate buffer (pH 7.0), 0.15 M KCl, 1.5 mM N-acetylcysteine, 5 mM MgCl2, and 0.1 mM EDTA using 4 strokes of a Potter-Elvehjem tissue homogenizer. The homogenate is centrifuged at 10,400×g for 20 min to eliminate mitochondria and cellular debris. The supernatant is filtered through a 3-layer cheesecloth and centrifuged at 105,000×g for 60 min. The microsomal pellet is gently resuspended in the same homogenization solution with a small glass/teflon homogenizer and stored at −70° C. The absence of mitochondrial contamination is enzymatically assessed. The protein concentration is measured using bovine serum albumin as the standard.
Incubation of rat liver microsomes with delta-5-desaturase modulators: Reactions are started by adding 2 mg of microsomal protein to pre-incubated tubes containing 0.20 μCi of the substrate fatty acid (DLL) at a final concentration of 33.3 μM in 1.5 ml of homogenization solution, containing NaF (42 mM), niacinamide (0.33 mM), ATP (1.57 mM), NADH (1.0 mM), coenzyme A (0.09 mM) and a range of concentrations of the enzyme modulators. N-propyl gallate was added to the incubation medium to a final concentration of 0.02-0.32 mM. The tubes are vortexed vigorously and after 15 min incubation in a shaking water bath (37° C.), the reactions are stopped and fatty acids are analyzed as described in Example 6. Alternatively, fatty acid methyl esters are analyzed by capillary column gas chromatography (GC).

[6] = tested on: spheroplasts of Saccharomyces cerevisiae; assay: Cell density (O.D.600) and substrate radioactivity recovered in spheroplasts incubated with inhibitor
Source text: Total lipids were extracted and analyzed as described in Example 6.

[7] = tested on: whole cells of Saccharomyces cerevisiae; assay: Cell density (O.D.600) and substrate radioactivity recovered in whole yeast incubated with inhibitor; type: cell-based
Experimental: as §2

fatty acid desaturases = settings: Kawashima et al., 1996; cited from earlier work
[8] = n-propyl gallate 0.25 mM, 20:3n-6 to 20:4n-6

## CC/C=C\C/C=C\C/C=C\C/C=C\C/C=C\C/C=C\CCC(=O)O [DHA, docosahexaenoic acid]
[1]
  Percent Activity Compared to Controls: 19.82 ± 1.41%

## CCCOC(=O)c1cc(O)c(O)c(O)c1 [n-propyl gallate, 3,4,5-Trihydoxybenzoic acid propyl ester]
Human delta-5-desaturase [2]; [8]
  % inhibition: 14.6%
Human delta-5-desaturase [2]; n-propyl gallate 0.50 mM
  % inhibition: 17.6%
Human delta-5-desaturase [2]; n-propyl gallate 1.00 mM
  % inhibition: 24.0%
Human delta-5-desaturase [2]; n-propyl gallate 2.00 mM
  % inhibition: 41.0%
Human delta-5-desaturase [2]; n-propyl gallate 4.00 mM
  % inhibition: 100.0%
Human delta-5-desaturase [2]; n-propyl gallate 8.00 mM
  % inhibition: 100.0%
Rat delta-5-desaturase [3]; [8]
  % inhibition: 4.3%
Rat delta-5-desaturase [3]; n-propyl gallate 1.00 mM
  % inhibition: 7.0%
Rat delta-5-desaturase [3]; n-propyl gallate 2.00 mM
  % inhibition: 20.5%
Rat delta-5-desaturase [3]; n-propyl gallate 4.00 mM
  % inhibition: 50.4%
Rat delta-5-desaturase [3]; n-propyl gallate 8.00 mM
  % inhibition: 81.9%
Human delta-5-desaturase [4]; n-propyl gallate 1.7 mM, gene induced after addition of inhibitor
  % inhibition: 25.0%
Human delta-5-desaturase [4]; n-propyl gallate 3.5 mM
  % inhibition: 63.3%
Human delta-5-desaturase [4]; n-propyl gallate 7.0 mM
  % inhibition: 100.0%
Rat delta-5-desaturase [5]; n-propyl gallate 7.0 mM, gene induced after addition of inhibitor
  % inhibition: 38.9%
Rat delta-5-desaturase [5]; n-propyl gallate 14.0 mM
  % inhibition: 68.5%
delta-5-desaturase
  concentration of the inhibitor at which a plateau of inhibition was reached: 0.08 to 0.32 mM
delta-5-desaturase; n-propyl gallate 0.02 mM, activity without inhibitor 394 pmol/mg microsomal protein/min
  % of inhibition: 62.9%
delta-5-desaturase; n-propyl gallate 0.04 mM
  % of inhibition: 74.9%
delta-5-desaturase; n-propyl gallate 0.08 mM
  % of inhibition: 86.4%
delta-5-desaturase; n-propyl gallate 0.16 mM
  % of inhibition: 88.7%
delta-5-desaturase; n-propyl gallate 0.32 mM
  % of inhibition: 100.0%
[6]; n-propyl gallate 0.25 mM, pTh5009.1, without inhibitor 2.6
  O.D.600: 2.4
[6]; n-propyl gallate 0.25 mM, pYr5014.1, without inhibitor 3.2
  O.D.600: 2.8
[6]; n-propyl gallate 0.50 mM, pTh5009.1
  O.D.600: 2.5
[6]; n-propyl gallate 1.00 mM, pTh5009.1
  O.D.600: 2.5
[6]; n-propyl gallate 1.00 mM, pYr5014.1
  O.D.600: 2.9
[6]; n-propyl gallate 2.00 mM, pTh5009.1
  O.D.600: 2.2
[6]; n-propyl gallate 2.00 mM, pYr5014.1
  O.D.600: 2.7
[6]; n-propyl gallate 4.00 mM, pTh5009.1
  O.D.600: 2.4
[6]; n-propyl gallate 4.00 mM, pYr5014.1
  O.D.600: 2.9
[6]; n-propyl gallate 8.00 mM, pTh5009.1
  O.D.600: 1.2
[6]; n-propyl gallate 8.00 mM, pYr5014.1
  O.D.600: 2.8
[6]; n-propyl gallate between 0.7-4.0 mM
  cytotoxicity (consistent O.D.600 readings): not cytotoxic
[7]; n-propyl gallate 1.7 mM, pTh5009.1, without inhibitor 10.9
  O.D.600: 9.0
[7]; n-propyl gallate 3.5 mM, pTh5009.1
  O.D.600: 9.9
[7]; n-propyl gallate 7.0 mM, pTh5009.1
  O.D.600: 10.5
[7]; n-propyl gallate 7.0 mM, pYr5014.1, without inhibitor 6.7
  O.D.600: 6.5
[7]; n-propyl gallate 14.0 mM, pYr5014.1
  O.D.600: 5.4
Fatty acid desaturases
  type of inhibition of fatty acid desaturases: noncompetitive inhibitor
